# Reference: paper PMC12111648, “New Dimethoxyaryl-Sesquiterpene Derivatives with Cytotoxic Activity Against MCF-7 Breast Cancer Cells: From Synthesis to Topoisomerase I/II Inhibition and Cell Death Mechanism Studies” (International Journal of Molecular Sciences, 2025)
# Entries after “also recorded” stand apart in the source; their conditions may differ.
# Columns and labels:
# MCF-7 cells = assay: Intracellular ROS generation (DCFH2-DA, flow cytometry); type: cell-based, human; conditions: MCF-7, compounds at respective IC50, 24 h, versus control
# Procedure: An increase in intracellular ROS may be one of the factors that contribute to the cytotoxicity of certain compounds in cancer cell lines. In fact, ROS and mitochondrial damage are often associated with the induction of cell death. […] DCF fluorescence was then measured by flow cytometry. The difference in the percentage of DCF-positive cells between treated and control cells was used to indicate an increase in intracellular ROS, as shown in Figure 4.
# Reactive oxygen species (ROS) production was measured using flow cytometry. Cells were treated with compounds (each with respective IC50 values) for 24 h, with untreated cells serving as the negative control and cells treated with 1 µM daunorubicin as the positive control. Following the treatment, intracellular ROS levels were visualized after incubation with 2′,7′-dichlorodihydro-fluorescein diacetate (DCFH2-DA) at a final concentration of 10 μM for the last 30 min of the treatment period. After incubation, the cells were washed with PBS, trypsinized, and centrifuged, and the resulting pellet was resuspended in PBS and immediately examined by flow cytometry.
# Figure 4 The effect of the compound’s treatment on intracellular ROS generation. Cells were treated with compounds (respective IC50 values for each compound for 24 h), and intracellular ROS levels were determined in the human cancer cell line MCF-7 by flow cytometry using dichloro-fluorescein diacetate (DCFH2-DA). * p < 0.05 versus control cells (Ctrl). The data represent the means ± S.D. of at least three experiments with triplicate samples.
# human topoisomerase II = assay: TOP2 DNA relaxation / plasmid linearization assay; type: biochemical; conditions: 20 μM
# Procedure: (§1) The ability to relax DNA conformations is a central function of topoisomerase enzymes. Several studies have associated some proapoptotic compounds with the ability to inhibit topoisomerase enzymes. The ability of the selected compounds to inhibit TOP1 or TOP2 activity was determined. In this experiment, daunorubicin was used as a positive control for TOP1/2 inhibition, as previously reported. […] It is important to note the potential for cardiotoxicity associated with some TOP2 inhibitors, which highlights the relevance of assessing compound 14c’s interaction with TOP2B. […] Future studies should include assays to evaluate the specific activity of 14c against both TOP2A and TOP2B to provide a more comprehensive safety profile, as isoform-selective TOP2 inhibitors may offer a therapeutic advantage by reducing adverse effects.
# Topoisomerase II-mediated DNA cleavage was assessed using a plasmid linearization assay adapted from previously described methods. Supercoiled plasmid DNA (200 ng final concentration) was incubated with purified human topoisomerase II (10 U) in the presence or absence of test agents or a positive control. Reactions were carried out in a total volume of 20 μL, composed of 2 μL of 10× topoisomerase II reaction buffer, an appropriate volume of compound or control, and nuclease-free water. ATP (final concentration adjusted from a 20 mM stock) was freshly added to the reaction buffer immediately prior to use. Reactions were initiated by the addition of topoisomerase II and incubated at 37 °C for 30 min. To terminate the reactions, 2 μL of 10% SDS was added directly to the tubes while still in the 37 °C water bath, followed by the addition of 1.5 μL of 250 mM tetrasodium EDTA (pH 8.0) and 2 μL of proteinase K solution (0.8 mg/mL). […]
# (§2) Figure 7 The effect of sesquiterpene aryl esters on TOP1- and TOP2-induced DNA relaxation was assessed. (A) The TOP1 inhibition assay evaluated the compounds (10c, 11c, 12c, 13c, and 14c) at a concentration of 20 μM in a DNA relaxation assay. […]
# human topoisomerase I = biological target: T1, human topoisomerase I (Homo sapiens, UniProt P11387); assay: TOP1 DNA relaxation assay; type: biochemical; conditions: 20 μM
# T1 construct: purchased Sigma-Aldrich (St. Louis, MO, USA)
# T1 sequence (P11387 1-765): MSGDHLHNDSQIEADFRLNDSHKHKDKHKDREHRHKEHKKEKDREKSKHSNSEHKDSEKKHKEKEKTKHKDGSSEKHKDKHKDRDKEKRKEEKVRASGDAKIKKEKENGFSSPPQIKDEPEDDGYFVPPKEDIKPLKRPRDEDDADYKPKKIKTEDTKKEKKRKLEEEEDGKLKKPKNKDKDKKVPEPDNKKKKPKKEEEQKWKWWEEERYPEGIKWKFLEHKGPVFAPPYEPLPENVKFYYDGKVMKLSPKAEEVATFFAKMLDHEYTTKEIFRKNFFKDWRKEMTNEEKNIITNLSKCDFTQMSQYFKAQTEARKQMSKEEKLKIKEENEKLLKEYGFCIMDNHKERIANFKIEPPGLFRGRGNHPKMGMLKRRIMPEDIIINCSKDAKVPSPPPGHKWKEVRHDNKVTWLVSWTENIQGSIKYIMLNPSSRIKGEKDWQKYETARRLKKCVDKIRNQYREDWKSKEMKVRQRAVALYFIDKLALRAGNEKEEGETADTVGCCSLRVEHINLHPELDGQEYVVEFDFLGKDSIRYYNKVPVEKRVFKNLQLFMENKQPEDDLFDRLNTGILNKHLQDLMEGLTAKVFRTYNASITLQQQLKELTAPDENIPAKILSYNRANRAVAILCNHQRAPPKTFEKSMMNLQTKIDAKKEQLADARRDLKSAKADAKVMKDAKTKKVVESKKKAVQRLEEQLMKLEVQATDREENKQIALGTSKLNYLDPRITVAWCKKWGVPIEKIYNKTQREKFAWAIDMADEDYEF
# Procedure: as §1
# TOP1 activity was assayed by the relaxation of supercoiled DNA (pEGFP-N1) as the manufacturer’s instructions indicated. Briefly, human recombinant TOP1 and buffer assay were obtained from Sigma-Aldrich (St. Louis, MO, USA). […]
# as §2
inhibition of TOP1-induced DNA relaxation (human topoisomerase I),Compound,intracellular ROS levels (DCF fluorescence) (MCF-7 cells),inhibition of TOP2-induced DNA relaxation (human topoisomerase II)
,"COc1ccc(/C=C2\C(C)=CCC3C(C)(C)CCC[C@]23C)cc1OC (stereo partly drawn) [Compound 13c, (4aS)-5-((E)-3,4-Dimethoxybenzylidene)-1,1,4a,6-tetramethyl-1,2,3,4,4a,5,8,8a-octahydronaphthalene]",significantly increased,no inhibition
did not show significant inhibition,"COc1cc2c(cc1OC)[C@]1(C)CCC3C(C)(C)CCC[C@]3(C)C1=C2 (stereo partly drawn) [Compound 14c, (6aR,11bS)-8,9-Dimethoxy-4,4,6a,11b-tetramethyl-2,3,4,4a,5,6,6a,11b-octahydro-1H-benzo[a]fluorene]",induced oxidative stress; also recorded: significantly increased,selectively inhibited topoisomerase II; also recorded: modified the TOP2-induced DNA relaxation pattern
